Measurements: PMC8213057, “Targeting ALK2: An Open Science Approach to Developing Therapeutics for the Treatment of Diffuse Intrinsic Pontine Glioma” (Journal of Medicinal Chemistry, 2020)

Experiments:
PHKg2 = target: T1, PHKg2 (Homo sapiens, UniProt P15735); settings: 1 μM; Run 1, Run 2
T1 sequence (P15735 1-406): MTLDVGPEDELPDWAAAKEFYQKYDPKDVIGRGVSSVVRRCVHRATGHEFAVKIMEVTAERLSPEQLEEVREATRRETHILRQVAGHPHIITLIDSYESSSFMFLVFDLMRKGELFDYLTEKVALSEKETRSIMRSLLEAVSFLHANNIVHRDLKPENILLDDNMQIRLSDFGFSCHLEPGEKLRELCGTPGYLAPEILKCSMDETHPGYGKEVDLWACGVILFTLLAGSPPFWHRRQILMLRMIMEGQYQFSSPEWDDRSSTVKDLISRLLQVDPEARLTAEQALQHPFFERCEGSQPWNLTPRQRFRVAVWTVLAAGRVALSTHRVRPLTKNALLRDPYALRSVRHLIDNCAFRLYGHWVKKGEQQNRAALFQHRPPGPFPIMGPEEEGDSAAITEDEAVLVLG

RAF1 = RAF1 (Homo sapiens, UniProt P04049); settings: 1 μM; Run 1, Run 2
PLK4/SAK = target: T2, PLK4/SAK (Homo sapiens, UniProt O00444); settings: 1 μM; Run 1, Run 2
T2 sequence (O00444 1-970): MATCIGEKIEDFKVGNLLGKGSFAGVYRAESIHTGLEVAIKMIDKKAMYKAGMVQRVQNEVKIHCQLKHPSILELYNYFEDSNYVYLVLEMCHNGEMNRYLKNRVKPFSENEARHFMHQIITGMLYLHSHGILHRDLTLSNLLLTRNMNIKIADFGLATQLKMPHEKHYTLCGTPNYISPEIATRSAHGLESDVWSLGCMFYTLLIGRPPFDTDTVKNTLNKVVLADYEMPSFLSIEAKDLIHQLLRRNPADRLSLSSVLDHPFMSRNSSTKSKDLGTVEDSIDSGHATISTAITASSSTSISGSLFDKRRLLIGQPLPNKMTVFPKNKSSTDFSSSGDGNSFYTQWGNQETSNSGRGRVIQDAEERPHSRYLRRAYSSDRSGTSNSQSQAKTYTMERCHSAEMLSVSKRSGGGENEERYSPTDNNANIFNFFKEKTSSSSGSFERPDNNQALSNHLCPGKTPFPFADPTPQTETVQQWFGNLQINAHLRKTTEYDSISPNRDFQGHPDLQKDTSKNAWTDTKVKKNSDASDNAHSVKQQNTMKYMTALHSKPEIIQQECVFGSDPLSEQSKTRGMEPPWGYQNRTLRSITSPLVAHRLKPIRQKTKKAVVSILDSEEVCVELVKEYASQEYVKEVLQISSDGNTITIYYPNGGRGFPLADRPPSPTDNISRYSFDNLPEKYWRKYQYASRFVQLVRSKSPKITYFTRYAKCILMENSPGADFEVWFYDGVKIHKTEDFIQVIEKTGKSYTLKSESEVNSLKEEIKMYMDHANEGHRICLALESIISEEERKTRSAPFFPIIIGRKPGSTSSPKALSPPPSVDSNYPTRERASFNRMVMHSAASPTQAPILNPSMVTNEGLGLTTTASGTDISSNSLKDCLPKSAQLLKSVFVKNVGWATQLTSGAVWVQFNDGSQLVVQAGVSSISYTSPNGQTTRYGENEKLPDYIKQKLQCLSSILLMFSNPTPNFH

CDK18/cyclin Y (PCTK3) = CDK18/cyclin Y (PCTK3) (Homo sapiens, UniProt Q07002); assay: biochemical; settings: read-out: % enzyme activity, 1 μM; Run 1, Run 2
RSK3 = RSK3 (Homo sapiens, UniProt Q15349); settings: 1 μM; Run 1, Run 2
DAPK2 = DAPK2 (Homo sapiens, UniProt Q9UIK4); assay: biochemical; settings: read-out: % enzyme activity, 1 μM; Run 1, Run 2
ULK1 = target: T3, ULK1 (Homo sapiens, UniProt O75385); settings: 1 μM; Run 1, Run 2
T3 sequence (O75385 1-1050): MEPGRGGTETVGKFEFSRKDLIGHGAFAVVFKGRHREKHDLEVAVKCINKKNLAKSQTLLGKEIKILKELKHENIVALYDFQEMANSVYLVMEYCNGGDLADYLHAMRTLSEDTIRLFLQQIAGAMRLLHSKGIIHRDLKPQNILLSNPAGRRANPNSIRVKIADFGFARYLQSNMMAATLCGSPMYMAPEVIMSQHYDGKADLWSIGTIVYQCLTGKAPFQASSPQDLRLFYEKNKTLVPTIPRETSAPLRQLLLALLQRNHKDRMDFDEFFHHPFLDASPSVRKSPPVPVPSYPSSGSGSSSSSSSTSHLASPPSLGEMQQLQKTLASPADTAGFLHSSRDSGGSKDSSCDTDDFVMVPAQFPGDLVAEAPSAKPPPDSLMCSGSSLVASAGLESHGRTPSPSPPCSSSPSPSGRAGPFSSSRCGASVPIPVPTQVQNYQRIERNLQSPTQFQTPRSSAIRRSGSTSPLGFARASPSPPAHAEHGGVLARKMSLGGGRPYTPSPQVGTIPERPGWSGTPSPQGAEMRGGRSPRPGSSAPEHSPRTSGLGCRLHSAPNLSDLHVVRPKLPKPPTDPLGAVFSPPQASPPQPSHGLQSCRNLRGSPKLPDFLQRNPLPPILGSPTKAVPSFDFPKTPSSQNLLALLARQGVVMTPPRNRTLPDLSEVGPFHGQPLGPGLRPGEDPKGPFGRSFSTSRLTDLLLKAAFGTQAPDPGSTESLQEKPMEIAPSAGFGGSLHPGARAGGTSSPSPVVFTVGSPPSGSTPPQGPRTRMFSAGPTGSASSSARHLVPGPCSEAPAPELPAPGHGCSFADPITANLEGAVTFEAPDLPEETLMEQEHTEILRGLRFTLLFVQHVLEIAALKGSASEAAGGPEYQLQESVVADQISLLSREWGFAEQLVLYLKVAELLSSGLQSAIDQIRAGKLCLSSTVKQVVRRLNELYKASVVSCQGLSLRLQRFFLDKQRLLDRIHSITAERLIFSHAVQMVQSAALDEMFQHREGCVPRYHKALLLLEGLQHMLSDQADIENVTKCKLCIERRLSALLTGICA

MLK4 = MLK4 (Homo sapiens, UniProt Q5TCX8); settings: 1 μM; Run 1, Run 2
Sequence of MLK4 (Q5TCX8 whole entry): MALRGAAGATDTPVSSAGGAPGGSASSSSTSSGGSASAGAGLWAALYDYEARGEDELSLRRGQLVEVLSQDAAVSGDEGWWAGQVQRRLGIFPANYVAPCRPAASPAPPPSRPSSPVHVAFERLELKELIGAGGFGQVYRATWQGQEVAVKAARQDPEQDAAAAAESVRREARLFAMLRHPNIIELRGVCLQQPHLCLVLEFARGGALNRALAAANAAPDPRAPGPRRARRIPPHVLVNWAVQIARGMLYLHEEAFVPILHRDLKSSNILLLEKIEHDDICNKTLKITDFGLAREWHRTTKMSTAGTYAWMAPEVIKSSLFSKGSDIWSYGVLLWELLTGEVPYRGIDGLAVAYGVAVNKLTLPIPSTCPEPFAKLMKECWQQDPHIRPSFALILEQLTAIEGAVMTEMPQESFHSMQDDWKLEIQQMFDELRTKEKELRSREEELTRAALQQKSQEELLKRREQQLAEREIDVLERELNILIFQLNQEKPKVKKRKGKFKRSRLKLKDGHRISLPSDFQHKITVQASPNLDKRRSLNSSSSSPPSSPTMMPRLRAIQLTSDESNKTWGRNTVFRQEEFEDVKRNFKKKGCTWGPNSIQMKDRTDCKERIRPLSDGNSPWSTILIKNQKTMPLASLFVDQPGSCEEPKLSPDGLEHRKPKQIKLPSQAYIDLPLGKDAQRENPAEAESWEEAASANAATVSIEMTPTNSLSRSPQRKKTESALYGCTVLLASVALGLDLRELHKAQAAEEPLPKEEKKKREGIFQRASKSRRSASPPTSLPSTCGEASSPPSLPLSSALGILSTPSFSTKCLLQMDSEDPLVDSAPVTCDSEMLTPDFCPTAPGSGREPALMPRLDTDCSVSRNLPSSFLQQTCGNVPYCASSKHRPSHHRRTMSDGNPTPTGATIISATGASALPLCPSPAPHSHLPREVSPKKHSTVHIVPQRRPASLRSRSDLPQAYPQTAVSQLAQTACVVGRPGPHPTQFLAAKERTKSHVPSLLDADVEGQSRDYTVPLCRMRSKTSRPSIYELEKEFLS

Sequence of RSK3 (Q15349 whole entry): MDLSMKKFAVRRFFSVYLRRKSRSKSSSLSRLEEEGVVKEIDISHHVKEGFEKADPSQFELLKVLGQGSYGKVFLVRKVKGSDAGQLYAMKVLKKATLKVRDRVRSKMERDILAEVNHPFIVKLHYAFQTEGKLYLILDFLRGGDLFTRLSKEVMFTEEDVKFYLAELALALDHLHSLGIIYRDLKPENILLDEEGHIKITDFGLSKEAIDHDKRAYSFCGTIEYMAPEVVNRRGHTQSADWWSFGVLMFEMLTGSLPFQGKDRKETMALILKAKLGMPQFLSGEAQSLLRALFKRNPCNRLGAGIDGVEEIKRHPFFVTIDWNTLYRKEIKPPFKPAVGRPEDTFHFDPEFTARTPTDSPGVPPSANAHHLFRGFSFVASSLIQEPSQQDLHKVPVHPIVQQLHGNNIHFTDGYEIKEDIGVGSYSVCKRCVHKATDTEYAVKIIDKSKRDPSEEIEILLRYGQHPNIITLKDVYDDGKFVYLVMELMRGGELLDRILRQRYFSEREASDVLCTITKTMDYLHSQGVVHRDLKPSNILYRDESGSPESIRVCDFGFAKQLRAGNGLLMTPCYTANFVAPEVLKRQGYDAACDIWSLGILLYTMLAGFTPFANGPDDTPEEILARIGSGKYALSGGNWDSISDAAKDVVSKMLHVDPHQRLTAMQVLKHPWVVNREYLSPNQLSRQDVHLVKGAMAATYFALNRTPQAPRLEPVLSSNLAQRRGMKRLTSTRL
Sequence of CDK18/cyclin Y (PCTK3) (Q07002 whole entry): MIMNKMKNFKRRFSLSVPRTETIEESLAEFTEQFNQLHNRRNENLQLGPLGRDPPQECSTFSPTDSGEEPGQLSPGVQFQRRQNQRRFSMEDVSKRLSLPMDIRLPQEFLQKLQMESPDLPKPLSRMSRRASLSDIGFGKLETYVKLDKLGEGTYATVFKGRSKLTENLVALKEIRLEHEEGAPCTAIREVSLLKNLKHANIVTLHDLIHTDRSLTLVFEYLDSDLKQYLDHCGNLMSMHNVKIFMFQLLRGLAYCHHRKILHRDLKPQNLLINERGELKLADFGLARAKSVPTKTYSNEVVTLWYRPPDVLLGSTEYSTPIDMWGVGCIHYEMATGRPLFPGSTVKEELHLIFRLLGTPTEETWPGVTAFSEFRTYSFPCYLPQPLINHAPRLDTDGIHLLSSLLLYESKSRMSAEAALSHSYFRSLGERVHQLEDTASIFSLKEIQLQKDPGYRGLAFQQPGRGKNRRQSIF
Sequence of CDK18/cyclin Y (PCTK3) (Q8ND76 whole entry partner): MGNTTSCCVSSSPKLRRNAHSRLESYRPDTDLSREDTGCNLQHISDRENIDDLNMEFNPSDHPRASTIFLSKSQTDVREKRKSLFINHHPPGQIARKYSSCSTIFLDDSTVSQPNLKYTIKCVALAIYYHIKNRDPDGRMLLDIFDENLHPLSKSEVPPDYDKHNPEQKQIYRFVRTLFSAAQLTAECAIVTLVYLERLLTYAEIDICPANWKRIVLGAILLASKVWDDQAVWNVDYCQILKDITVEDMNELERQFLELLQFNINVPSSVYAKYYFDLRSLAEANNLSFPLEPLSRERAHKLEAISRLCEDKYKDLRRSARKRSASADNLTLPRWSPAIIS
Sequence of DAPK2 (Q9UIK4 whole entry): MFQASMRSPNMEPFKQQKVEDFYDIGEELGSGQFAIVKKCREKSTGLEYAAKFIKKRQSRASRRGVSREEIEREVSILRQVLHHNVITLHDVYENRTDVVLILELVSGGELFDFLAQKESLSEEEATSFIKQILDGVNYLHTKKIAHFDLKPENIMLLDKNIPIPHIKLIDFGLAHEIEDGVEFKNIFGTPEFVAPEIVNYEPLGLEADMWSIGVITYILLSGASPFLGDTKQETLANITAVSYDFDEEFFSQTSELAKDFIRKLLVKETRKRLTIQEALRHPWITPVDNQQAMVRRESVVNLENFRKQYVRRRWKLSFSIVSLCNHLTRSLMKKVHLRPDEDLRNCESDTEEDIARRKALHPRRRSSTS
Sequence of RAF1 (P04049 whole entry): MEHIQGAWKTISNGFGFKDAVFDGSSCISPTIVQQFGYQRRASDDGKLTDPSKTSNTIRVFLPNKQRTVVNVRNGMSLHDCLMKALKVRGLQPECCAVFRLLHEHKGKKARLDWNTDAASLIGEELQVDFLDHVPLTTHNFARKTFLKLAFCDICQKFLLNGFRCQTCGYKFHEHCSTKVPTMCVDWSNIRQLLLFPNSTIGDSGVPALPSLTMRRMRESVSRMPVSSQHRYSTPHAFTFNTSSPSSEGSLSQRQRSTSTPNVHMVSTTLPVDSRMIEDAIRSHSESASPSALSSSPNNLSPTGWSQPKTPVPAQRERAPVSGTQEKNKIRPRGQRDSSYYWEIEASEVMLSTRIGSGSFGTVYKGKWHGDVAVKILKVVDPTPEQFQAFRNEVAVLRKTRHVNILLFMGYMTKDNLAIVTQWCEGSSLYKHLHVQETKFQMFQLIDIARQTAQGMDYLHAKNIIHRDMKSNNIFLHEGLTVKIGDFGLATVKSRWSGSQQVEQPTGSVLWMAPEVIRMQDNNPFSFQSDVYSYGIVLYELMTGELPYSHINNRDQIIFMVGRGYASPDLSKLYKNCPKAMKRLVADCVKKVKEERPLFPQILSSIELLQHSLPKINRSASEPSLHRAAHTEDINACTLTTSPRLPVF

With `COc1cc(-c2cncc(-c3ccc(N4CCN(C)CC4)cc3)c2C)cc(F)c1C(N)=O` [Compound 26a, 2-Fluoro-6-methoxy-4-(4-methyl-5-(4-(4-methylpiperazin-1-yl)phenyl)pyridin-3-yl)benzamide] the “% enzyme activity” value (PHKg2) was 93.32%, the “% enzyme activity” value (RAF1) was 78.57% and the “% enzyme activity” value (PLK4/SAK) was 93.32%. For the same molecule, the remaining activity at 1 µM (CDK18/cyclin Y (PCTK3)) was 102%, the “% enzyme activity” value (RSK3) was 87.93% and the remaining activity at 1 µM (DAPK2) was 103%. For the same molecule, the “% enzyme activity” value (ULK1) was 83.53% and the “% enzyme activity” value (MLK4) was 95.21%.
In the case of `COc1cc(-c2cncc(-c3ccc(N4C[C@@H](C)N(C)[C@@H](C)C4)cc3)c2C)cc(F)c1C(N)=O` [Compound 26c, 2-Fluoro-6-methoxy-4-(4-methyl-5-(4-((3R,5S)-3,4,5-trimethylpiperazin-1-yl)phenyl)pyridin-3-yl)benzamide], the “% enzyme activity” value (PHKg2) is reported as 96.43%, the “% enzyme activity” value (RAF1) is reported as 83.85% and the “% enzyme activity” value (PLK4/SAK) is reported as 98.79%. For the same molecule, the remaining activity at 1 µM (CDK18/cyclin Y (PCTK3)) was 99%, the “% enzyme activity” value (RSK3) was 99.74% and the remaining activity at 1 µM (DAPK2) was 100%. The “% enzyme activity” value (ULK1) was 89.24% and the “% enzyme activity” value (MLK4) was 93.38%.
